Legend:
Cathepsin G = target: T1, Cathepsin G (Homo sapiens, UniProt P08311); assay type: tissue-based; conditions: neutrophil;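 further: inhibition of Cathepsin G enzyme activity, tested on an AMC-conjugated peptide substrate; in other assays of this panel Not Active means under 50% inhibition at 10 µM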
T1 sequence (P08311 whole entry): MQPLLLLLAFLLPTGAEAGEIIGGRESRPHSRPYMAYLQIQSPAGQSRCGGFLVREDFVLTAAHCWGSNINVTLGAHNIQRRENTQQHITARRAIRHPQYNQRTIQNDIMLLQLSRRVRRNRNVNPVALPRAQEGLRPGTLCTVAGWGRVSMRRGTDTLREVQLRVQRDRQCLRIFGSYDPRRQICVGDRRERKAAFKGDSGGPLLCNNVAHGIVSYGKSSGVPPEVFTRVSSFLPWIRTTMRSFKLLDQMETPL

[1] = DRUGMATRIX: Phorbol Ester radioligand binding (ligand: [3H] PDBu); assay type: cell membranes, Mus musculus, ICR, Brain, Membrane; conditions: Not Active = under 50% inhibition at 10 µM
Substance-K receptor = target: T2, Substance-K receptor (Homo sapiens, UniProt P21452); assay type: cell membranes, CHO, Membrane; conditions: cho; further: in other assays of this panel Not Active means under 50% inhibition at 10 µM
T2 sequence (P21452 whole entry): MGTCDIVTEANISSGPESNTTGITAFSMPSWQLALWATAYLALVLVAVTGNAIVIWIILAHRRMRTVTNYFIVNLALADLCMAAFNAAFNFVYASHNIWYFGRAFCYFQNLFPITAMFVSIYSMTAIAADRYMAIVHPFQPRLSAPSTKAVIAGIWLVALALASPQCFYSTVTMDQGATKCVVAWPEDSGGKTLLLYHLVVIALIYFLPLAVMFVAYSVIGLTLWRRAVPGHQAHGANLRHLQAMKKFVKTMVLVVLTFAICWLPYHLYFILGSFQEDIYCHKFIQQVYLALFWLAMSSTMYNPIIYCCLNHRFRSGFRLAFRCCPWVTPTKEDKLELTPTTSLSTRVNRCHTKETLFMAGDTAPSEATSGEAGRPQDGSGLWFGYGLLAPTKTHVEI

[2] = target: T3, Angiotensin-converting enzyme (Oryctolagus cuniculus, UniProt P12822); assay type: tissue-based, Lung;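 further: enzymatic inhibition of angiotensin-converting enzyme measured with FAPGG as the substrate; in other assays of this panel Not Active means under 50% inhibition at 10 µM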
T3 sequence (P12822 whole entry): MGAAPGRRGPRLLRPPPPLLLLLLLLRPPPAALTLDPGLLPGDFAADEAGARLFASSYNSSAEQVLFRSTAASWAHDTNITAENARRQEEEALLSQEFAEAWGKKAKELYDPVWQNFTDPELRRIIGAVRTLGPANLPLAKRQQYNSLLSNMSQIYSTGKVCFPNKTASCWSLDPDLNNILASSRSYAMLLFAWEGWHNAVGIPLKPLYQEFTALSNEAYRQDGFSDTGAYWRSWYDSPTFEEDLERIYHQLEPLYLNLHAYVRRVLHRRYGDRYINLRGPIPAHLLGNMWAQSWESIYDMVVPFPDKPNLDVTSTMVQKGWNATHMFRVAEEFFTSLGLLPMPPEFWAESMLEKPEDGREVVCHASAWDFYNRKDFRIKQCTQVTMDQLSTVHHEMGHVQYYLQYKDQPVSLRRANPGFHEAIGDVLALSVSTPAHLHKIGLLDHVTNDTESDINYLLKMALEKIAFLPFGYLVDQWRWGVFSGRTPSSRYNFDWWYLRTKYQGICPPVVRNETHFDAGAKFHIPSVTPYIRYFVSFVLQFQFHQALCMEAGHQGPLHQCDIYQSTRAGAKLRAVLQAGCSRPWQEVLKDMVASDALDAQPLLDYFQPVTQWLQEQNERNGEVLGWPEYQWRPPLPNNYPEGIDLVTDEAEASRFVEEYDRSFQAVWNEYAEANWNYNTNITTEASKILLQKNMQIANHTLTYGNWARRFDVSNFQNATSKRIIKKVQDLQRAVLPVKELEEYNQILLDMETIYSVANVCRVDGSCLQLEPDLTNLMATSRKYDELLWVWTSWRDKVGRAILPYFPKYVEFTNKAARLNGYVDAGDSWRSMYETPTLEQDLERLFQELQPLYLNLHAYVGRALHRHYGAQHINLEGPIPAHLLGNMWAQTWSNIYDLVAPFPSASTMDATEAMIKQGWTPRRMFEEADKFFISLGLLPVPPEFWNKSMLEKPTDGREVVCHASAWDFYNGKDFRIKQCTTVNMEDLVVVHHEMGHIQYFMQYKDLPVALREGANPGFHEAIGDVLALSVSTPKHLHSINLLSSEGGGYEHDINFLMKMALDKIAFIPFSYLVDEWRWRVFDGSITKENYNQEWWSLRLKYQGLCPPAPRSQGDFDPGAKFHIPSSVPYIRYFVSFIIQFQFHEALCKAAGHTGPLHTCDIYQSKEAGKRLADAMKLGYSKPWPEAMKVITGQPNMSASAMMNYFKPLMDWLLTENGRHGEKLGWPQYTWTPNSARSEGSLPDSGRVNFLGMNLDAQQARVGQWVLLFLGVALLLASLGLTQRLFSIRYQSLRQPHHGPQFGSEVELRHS

[3] = target: T4, Polyunsaturated fatty acid lipoxygenase ALOX15 (Oryctolagus cuniculus, UniProt P12530); assay: biochemical; assay type: tissue-based, Reticulocytes; conditions: reticulocytes;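 further: inhibition of 15-lipoxygenase enzyme activity measured with linoleic acid as the substrate; in other assays of this panel Not Active means under 50% inhibition at 10 µM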
T4 sequence (P12530 whole entry): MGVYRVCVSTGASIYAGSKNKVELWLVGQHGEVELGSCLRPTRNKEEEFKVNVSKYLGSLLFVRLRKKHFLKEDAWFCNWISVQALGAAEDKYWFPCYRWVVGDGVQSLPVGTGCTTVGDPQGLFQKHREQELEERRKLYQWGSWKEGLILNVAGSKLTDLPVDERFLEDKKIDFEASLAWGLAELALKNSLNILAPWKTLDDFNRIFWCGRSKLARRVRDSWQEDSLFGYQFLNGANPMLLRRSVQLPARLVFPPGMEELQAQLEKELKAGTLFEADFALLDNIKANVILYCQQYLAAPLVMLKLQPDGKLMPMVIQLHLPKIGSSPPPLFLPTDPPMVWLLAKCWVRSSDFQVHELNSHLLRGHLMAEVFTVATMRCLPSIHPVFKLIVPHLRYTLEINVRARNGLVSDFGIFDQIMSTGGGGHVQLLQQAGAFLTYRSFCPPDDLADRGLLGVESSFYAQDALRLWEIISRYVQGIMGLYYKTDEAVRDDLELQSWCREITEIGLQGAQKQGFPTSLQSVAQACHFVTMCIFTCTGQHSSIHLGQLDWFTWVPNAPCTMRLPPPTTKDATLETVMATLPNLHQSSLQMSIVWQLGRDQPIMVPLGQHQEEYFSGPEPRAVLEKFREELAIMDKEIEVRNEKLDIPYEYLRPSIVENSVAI

[4] = DRUGMATRIX: Tumor Necrosis Factor (TNF), Non-Selective radioligand binding (ligand: [125I] TNF-alpha); assay type: cell membranes, Membrane; conditions: u-937; Not Active = under 50% inhibition at 10 µM

CO[C@H]1/C=C/O[C@@]2(C)Oc3c(C)c(O)c4c(O)c(c(/C=N/N5CCN(C6CCCC6)CC5)c(O)c4c3C2=O)NC(=O)/C(C)=C\C=C\[C@H](C)[C@H](O)[C@@H](C)[C@@H](O)[C@@H](C)[C@H](OC(C)=O)[C@@H]1C [RIFAPENTINE]
Not Active: IC50 (Cathepsin G) | IC50 [1] | Ki [1] | IC50 (Substance-K receptor) | IC50 [2] | IC50 [3] | IC50 [4] | Ki [4]

CCCCOc1cc(CC2CNC(=O)N2)ccc1OC (configuration not stated) [RO-201724]
Not Active: IC50 (Cathepsin G) | IC50 [1] | Ki [1] | IC50 (Substance-K receptor) | IC50 [2] | IC50 [3] | IC50 [4] | Ki [4]

CC[C@@H](C(=O)[C@@H](C)[C@@H](O)[C@H](C)[C@@H]1O[C@@H]([C@@H](CC)C(=O)O)CC[C@@H]1C)[C@H]1O[C@]2(C=C[C@@H](O)[C@]3(CC[C@@](C)([C@H]4CC[C@](O)(CC)[C@H](C)O4)O3)O2)[C@H](C)C[C@@H]1C [SALINOMYCIN]
Not Active: IC50 (Cathepsin G) | IC50 [1] | Ki [1] | IC50 (Substance-K receptor) | IC50 [2] | IC50 [3] | IC50 [4] | Ki [4]

O=C(Oc1ccccc1C(=O)O)c1ccccc1O [SALSALATE]
Not Active: IC50 (Cathepsin G) | IC50 [1] | Ki [1] | IC50 (Substance-K receptor) | IC50 [2] | IC50 [3] | IC50 [4] | Ki [4]

O=C(O)c1cn(-c2ccc(F)cc2)c2cc(N3CCNCC3)c(F)cc2c1=O [SARAFLOXACIN]
Not Active: IC50 (Cathepsin G) | IC50 [1] | Ki [1] | IC50 (Substance-K receptor) | IC50 [2] | IC50 [3] | IC50 [4] | Ki [4]

CC(C)NCC(O)c1ccc(NS(C)(=O)=O)cc1 (configuration not stated) [SOTALOL]
Not Active: IC50 (Cathepsin G) | IC50 [1] | Ki [1] | IC50 (Substance-K receptor) | IC50 [2] | IC50 [3] | IC50 [4] | Ki [4]

O.O.O.O.O.O.[Cl-].[Cl-].[Sr+2] [STRONTIUM CHLORIDE HEXAHYDRATE]
Not Active: IC50 (Cathepsin G) | IC50 [1] | Ki [1] | IC50 (Substance-K receptor) | IC50 [2] | IC50 [3] | IC50 [4] | Ki [4]

O=C1C(CC[S+]([O-])c2ccccc2)C(=O)N(c2ccccc2)N1c1ccccc1 (configuration not stated) [SULFINPYRAZONE]
Not Active: IC50 (Cathepsin G) | IC50 [1] | Ki [1] | IC50 (Substance-K receptor) | IC50 [2] | IC50 [3] | IC50 [4] | Ki [4]

NC(=O)N1C(=O)/C(=C(\O)c2cccs2)c2cc(Cl)ccc21 [TENIDAP]
Not Active: IC50 (Cathepsin G) | IC50 [1] | Ki [1] | IC50 (Substance-K receptor) | IC50 [2] | IC50 [3] | IC50 [4] | Ki [4]

COc1cc2nc(N3CCN(C(=O)C4CCCO4)CC3)nc(N)c2cc1OC (configuration not stated) [TERAZOSIN]
Not Active: IC50 (Cathepsin G) | IC50 [1] | Ki [1] | IC50 (Substance-K receptor) | IC50 [2] | IC50 [3] | IC50 [4] | Ki [4]

CN(C/C=C/C#CC(C)(C)C)Cc1cccc2ccccc12 [TERBINAFINE]
Not Active: IC50 (Cathepsin G) | IC50 [1] | Ki [1] | IC50 (Substance-K receptor) | IC50 [2] | IC50 [3] | IC50 [4] | Ki [4]

CCCCNc1ccc(C(=O)OCCN(C)C)cc1 [TETRACAINE]
Not Active: IC50 (Cathepsin G) | IC50 [1] | Ki [1] | IC50 (Substance-K receptor) | IC50 [2] | IC50 [3] | IC50 [4] | Ki [4]

Cn1c(=O)c2nc[nH]c2n(C)c1=O.O [THEOPHYLLINE]
Not Active: IC50 (Cathepsin G) | IC50 [1] | Ki [1] | IC50 (Substance-K receptor) | IC50 [2] | IC50 [3] | IC50 [4] | Ki [4]

CS(=O)(=O)c1ccc([C@@H](O)[C@@H](CO)NC(=O)C(Cl)Cl)cc1 [THIAMPHENICOL]
Not Active: IC50 (Cathepsin G) | IC50 [1] | Ki [1] | IC50 (Substance-K receptor) | IC50 [2] | IC50 [3] | IC50 [4] | Ki [4]

CCN(CC)CCNC(=O)c1cc(S(C)(=O)=O)ccc1OC [TIAPRIDE]
Not Active: IC50 (Cathepsin G) | IC50 [1] | Ki [1] | IC50 (Substance-K receptor) | IC50 [2] | IC50 [3] | IC50 [4] | Ki [4]

Clc1ccccc1CN1CCc2sccc2C1 [TICLOPIDINE]
Not Active: IC50 (Cathepsin G) | IC50 [1] | Ki [1] | IC50 (Substance-K receptor) | IC50 [2] | IC50 [3] | IC50 [4] | Ki [4]

NC1CCN(c2nc3c(cc2F)c(=O)c(C(=O)O)cn3-c2ccc(F)cc2F)C1 (configuration not stated) [TOSUFLOXACIN]
Not Active: IC50 (Cathepsin G) | IC50 [1] | Ki [1] | IC50 (Substance-K receptor) | IC50 [2] | IC50 [3] | IC50 [4] | Ki [4]

O=C(Nc1ccc(Br)cc1)c1cc(Br)cc(Br)c1O [TRIBROMSALAN]
Not Active: IC50 (Cathepsin G) | IC50 [1] | Ki [1] | IC50 (Substance-K receptor) | IC50 [2] | IC50 [3] | IC50 [4] | Ki [4]

CC(c1cc2ccccc2s1)N(O)C(N)=O (configuration not stated) [ZILEUTON]
Not Active: IC50 (Cathepsin G) | IC50 [1] | Ki [1] | IC50 (Substance-K receptor) | IC50 [2] | IC50 [3] | IC50 [4] | Ki [4]

Reference: ChEMBL document CHEMBL1909046, “DrugMatrix in vitro pharmacology data”
